Assay results: ChEMBL document CHEMBL3044631, “Synthesis of 2-[4,5-dimethyl-1-(phenylamino)-1H-imidazol-2-ylthio]-N-(thiazole-2-yl)acetamide derivatives and their anticancer activities” (2013)

Columns and labels:
Assay type in all cases: functional
[1] = system: HCT-15; assay: Anticancer activity against Homo sapiens (human) HCT15 cells after 48 hr by SRB assay; settings: HCT-15, 48 h; for CC50: read-out: LC50 (the source's name)
[2] = system: Hs-578T; assay: Anticancer activity against Homo sapiens (human) Hs 578T cells after 48 hr by SRB assay; settings: for CC50: read-out: LC50 (the source's name)
[3] = system: DU-145; assay: Anticancer activity against Homo sapiens (human) DU145 cells after 48 hr by SRB assay; settings: DU-145, 48 h
[4] = system: OVCAR-5; assay: Anticancer activity against Homo sapiens (human) OVCAR5 cells after 48 hr by SRB assay; settings: OVCAR-5, 48 h
[5] = system: NCI/ADR-RES; assay: Anticancer activity against Homo sapiens (human) NCI/ADR-RES cells after 48 hr by SRB assay
[6] = system: HCT-116; assay: Anticancer activity against Homo sapiens (human) HCT116 cells after 48 hr by SRB assay; settings: HCT-116, 48 h
[7] = system: A549; assay: Anticancer activity against Homo sapiens (human) A549/ATCC cells after 48 hr by SRB assay; settings: A549, 48 h
[8] = system: SNB-19; assay: Anticancer activity against Homo sapiens (human) SNB19 cells after 48 hr by SRB assay; settings: SNB-19, 48 h
[9] = system: SNB-75; assay: Anticancer activity against Homo sapiens (human) SNB75 cells after 48 hr by SRB assay; settings: SNB-75, 48 h
[10] = system: NCI-H23; assay: Anticancer activity against Homo sapiens (human) NCI-H23 cells after 48 hr by SRB assay; settings: NCI-H23, 48 h; for CC50: read-out: LC50 (the source's name)
[11] = system: SF-539; assay: Anticancer activity against Homo sapiens (human) SF539 cells after 48 hr by SRB assay; settings: SF-539, 48 h
[12] = system: CAKI-1; assay: Anticancer activity against Homo sapiens (human) CAKI-1 cells after 48 hr by SRB assay; settings: CAKI-1, 48 h
[13] = system: HOP-62; assay: Anticancer activity against Homo sapiens (human) HOP62 cells after 48 hr by SRB assay; settings: HOP-62, 48 h
[14] = system: NCI-H322M; assay: Anticancer activity against Homo sapiens (human) NCI-H322M cells after 48 hr by SRB assay; settings: for CC50: read-out: LC50 (the source's name)
[15] = system: UACC-257; assay: Anticancer activity against Homo sapiens (human) UACC257 cells after 48 hr by SRB assay; settings: UACC-257, 48 h
[16] = system: M14; assay: Anticancer activity against Homo sapiens (human) M14 cells after 48 hr by SRB assay; settings: M14, 48 h
[17] = system: K562; assay: Anticancer activity against Homo sapiens (human) K562 cells after 48 hr by SRB assay; settings: K562, 48 h; for CC50: read-out: LC50 (the source's name)
[18] = system: IGROV-1; assay: Anticancer activity against Homo sapiens (human) IGROV1 cells after 48 hr by SRB assay; settings: IGROV-1, 48 h
[19] = system: T47D; assay: Anticancer activity against Homo sapiens (human) T47D cells after 48 hr by SRB assay; settings: for CC50: read-out: LC50 (the source's name)
[20] = system: SK-MEL-5; assay: Anticancer activity against Homo sapiens (human) SK-MEL-5 cells after 48 hr by SRB assay; settings: SK-MEL-5, 48 h
[21] = system: LOX IMVI; assay: Anticancer activity against Homo sapiens (human) LOXIMVI cells after 48 hr by SRB assay
[22] = system: MDA-MB-231; assay: Anticancer activity against Homo sapiens (human) MDA-MB-231/ATCC cells after 48 hr by SRB assay; settings: MDA-MB-231, 48 h; for CC50: read-out: LC50 (the source's name)
[23] = system: SF-268; assay: Anticancer activity against Homo sapiens (human) SF268 cells after 48 hr by SRB assay; settings: SF-268, 48 h
[24] = system: HL-60(TB); assay: Anticancer activity against Homo sapiens (human) HL-60(TB) cells after 48 hr by SRB assay; settings: HL-60, 48 h; for CC50: read-out: LC50 (the source's name)
[25] = system: BT-549; assay: Anticancer activity against Homo sapiens (human) BT549 cells after 48 hr by SRB assay; settings: BT-549, 48 h
[26] = system: COLO 205; assay: Anticancer activity against Homo sapiens (human) COLO205 cells after 48 hr by SRB assay; settings: COLO 205, 48 h; for CC50: read-out: LC50 (the source's name)
[27] = system: UO-31; assay: Anticancer activity against Homo sapiens (human) UO31 cells after 48 hr by SRB assay; settings: UO-31, 48 h; for CC50: read-out: LC50 (the source's name)
[28] = system: NCI-H522; assay: Anticancer activity against Homo sapiens (human) NCI-H522 cells after 48 hr by SRB assay; settings: NCI-H522, 48 h
[29] = system: OVCAR-4; assay: Anticancer activity against Homo sapiens (human) OVCAR4 cells after 48 hr by SRB assay; settings: OVCAR-4, 48 h
[30] = system: EKVX; assay: Anticancer activity against Homo sapiens (human) EKVX cells after 48 hr by SRB assay; settings: for CC50: read-out: LC50 (the source's name)
[31] = system: A498; assay: Anticancer activity against Homo sapiens (human) A498 cells after 48 hr by SRB assay; settings: A498, 48 h

## Cc1nc(SCC(=O)Nc2nc(-c3ccc(Cl)cc3)cs2)n(Nc2ccccc2)c1C
[1]
  GI50: 5.74 µM
  TGI: 23.3 µM
  CC50: 76.9 µM
[2]
  GI50: 3.42 µM
  TGI: 21.6 µM
  CC50: > 100 µM
[3]
  GI50: 5.64 µM
  LC50 (concentration killing 50% of cells): 45.4 µM
  TGI: 18.7 µM
[4]
  GI50: 2.65 µM
  LC50: 54.2 µM
  TGI: 13.5 µM
[5]
  GI50: 2600 nM
  LC50: 69.9 µM
  TGI: 7.18 µM
[6]
  GI50: 1840 nM
  LC50: 15.5 µM
  TGI: 4.62 µM
[7]
  GI50: 2900 nM
  LC50: 40.1 µM
  TGI: 11.6 µM
[8]
  GI50: 9.41 µM
  LC50: 61.7 µM
  TGI: 24.6 µM
[9]
  GI50: 3.48 µM
  LC50: 49.3 µM
  TGI: 16.2 µM
[10]
  GI50: 1850 nM
  TGI: 6.02 µM
  CC50: 26.3 µM
[11]
  GI50: 1.9 µM
  LC50 (concentration killing 50% of cells): 9.64 µM
  TGI: 4.27 µM
[12]
  GI50: 3930 nM
  LC50 (concentration killing 50% of cells): > 100 µM
  TGI: 22.6 µM
[13]
  GI50: 3.06 µM
  LC50: 31.7 µM
  TGI: 9.63 µM
[14]
  GI50: 4.17 µM
  TGI: 22.9 µM
  CC50: > 100 µM
[15]
  GI50: 3070 nM
  LC50: > 100 µM
  TGI: 17 µM
[16]
  GI50: 3.69 µM
  LC50: 51.2 µM
  TGI: 16 µM
[17]
  GI50: 120 nM
  TGI: > 100 µM
  CC50: > 100 µM
[18]
  GI50: 3.36 µM
  LC50 (concentration killing 50% of cells): > 100 µM
  TGI: 20.6 µM
[19]
  GI50: 1400 nM
  TGI: 5.24 µM
  CC50: 34.6 µM
[20]
  GI50: 2240 nM
  LC50 (concentration killing 50% of cells): 25.8 µM
  TGI: 6.31 µM
[21]
  GI50: 1780 nM
  LC50 (50% lethal concentration): 7.79 µM
  TGI: 3.72 µM
[22]
  GI50: 3.01 µM
  TGI: 15.2 µM
  CC50: 57.8 µM
[23]
  GI50: 4.8 µM
  LC50: 58.8 µM
  TGI: 20.1 µM
[24]
  GI50: 2.99 µM
  TGI: > 100 µM
  CC50: > 100 µM
[25]
  GI50: 7.02 µM
  LC50: 51.8 µM
  TGI: 20.9 µM
[26]
  GI50: 4.13 µM
  TGI: 14.5 µM
  CC50: 49.8 µM
[27]
  GI50: 3.59 µM
  TGI: 37.7 µM
  CC50: > 100 µM
[28]
  GI50: 2540 nM
  LC50 (50% lethal concentration): 66.5 µM
  TGI: 13.7 µM
[29]
  GI50: 4.6 µM
  LC50 (concentration killing 50% of starting cells): > 100 µM
  TGI: 22.1 µM
[30]
  GI50: 1840 nM
  TGI: 12.2 µM
  CC50: 94.1 µM
[31]
  GI50: 2.24 µM
  LC50: 35.8 µM
  TGI: 10.5 µM

## Cc1ccc(Nn2c(SCC(=O)Nc3nc(-c4ccccc4)cs3)nc(C)c2C)cc1
[1]
  GI50: 5.17 µM
  TGI: > 100 µM
  CC50: > 100 µM
[2]
  GI50: 3.41 µM
  TGI: > 100 µM
  CC50: > 100 µM
[3]
  GI50: 9.75 µM
  LC50 (concentration killing 50% of cells): > 100 µM
  TGI: 64.6 µM
[4]
  GI50: 17.2 µM
  LC50: > 100 µM
  TGI: > 100 µM
[5]
  GI50: 3040 nM
  LC50: > 100 µM
  TGI: 22.2 µM
[6]
  GI50: 2820 nM
  LC50: > 100 µM
  TGI: 26.5 µM
[7]
  GI50: 3030 nM
  LC50: > 100 µM
  TGI: > 100 µM
[8]
  GI50: 7.49 µM
  LC50: > 100 µM
  TGI: > 100 µM
[9]
  GI50: 2.81 µM
  LC50: > 100 µM
  TGI: > 100 µM
[10]
  GI50: 3420 nM
  TGI: > 100 µM
  CC50: > 100 µM
[11]
  GI50: 4.68 µM
  LC50 (concentration killing 50% of cells): > 100 µM
  TGI: 35.2 µM
[12]
  GI50: 1860 nM
  LC50 (concentration killing 50% of cells): 99.3 µM
  TGI: 6.1 µM
[13]
  GI50: 18.4 µM
  LC50: > 100 µM
[14]
  GI50: 10.2 µM
  TGI: > 100 µM
  CC50: > 100 µM
[15]
  GI50: 2120 nM
  LC50: > 100 µM
  TGI: 9.29 µM
[16]
  GI50: 3.7 µM
  LC50: > 100 µM
  TGI: 48.6 µM
[17]
  GI50: 3620 nM
  TGI: > 100 µM
  CC50: > 100 µM
[18]
  GI50: 4.59 µM
  LC50 (concentration killing 50% of cells): > 100 µM
  TGI: > 100 µM
[19]
  GI50: 1850 nM
  TGI: 10.4 µM
  CC50: > 100 µM
[20]
  GI50: 2000 nM
  LC50 (concentration killing 50% of cells): 23.8 µM
  TGI: 5.72 µM
[21]
  GI50: 3320 nM
  LC50 (50% lethal concentration): > 100 µM
  TGI: 19.3 µM
[22]
  GI50: 3.34 µM
  TGI: > 100 µM
  CC50: > 100 µM
[23]
  GI50: 9.1 µM
  LC50: > 100 µM
  TGI: > 100 µM
[24]
  GI50: 4.64 µM
  TGI: 39.1 µM
  CC50: > 100 µM
[25]
  GI50: 3.18 µM
  LC50: 94.7 µM
  TGI: 14.1 µM
[26]
  GI50: 3.98 µM
  TGI: 34.4 µM
  CC50: > 100 µM
[27]
  GI50: 2.89 µM
  TGI: > 100 µM
  CC50: > 100 µM
[28]
  GI50: 2970 nM
  LC50 (50% lethal concentration): > 100 µM
  TGI: 86.8 µM
[29]
  GI50: 2.13 µM
  LC50 (concentration killing 50% of starting cells): > 100 µM
  TGI: > 100 µM
[30]
  GI50: 1390 nM
  TGI: 5.61 µM
  CC50: > 100 µM
[31]
  GI50: 17.4 µM
  LC50: > 100 µM
  TGI: > 100 µM
